Laboratory results as given in patent US8754220B2, “Quinolizidinone carboxamide M1 receptor positive allosteric modulators” (Merck Sharp & Dohme Corp., priority 2009, dated 2014).
Where two headings read alike, the source gives them in different places.

Biological target: T1, acetylcholine muscarinic M1 receptor (CHOnfat/hM1 cells) (Homo sapiens, UniProt P11229)
T1 construct: expressed in transfected cells; host or cells: CHOnfat (CHO cells; selected with Geneticin)
T1 sequence (P11229 1-460): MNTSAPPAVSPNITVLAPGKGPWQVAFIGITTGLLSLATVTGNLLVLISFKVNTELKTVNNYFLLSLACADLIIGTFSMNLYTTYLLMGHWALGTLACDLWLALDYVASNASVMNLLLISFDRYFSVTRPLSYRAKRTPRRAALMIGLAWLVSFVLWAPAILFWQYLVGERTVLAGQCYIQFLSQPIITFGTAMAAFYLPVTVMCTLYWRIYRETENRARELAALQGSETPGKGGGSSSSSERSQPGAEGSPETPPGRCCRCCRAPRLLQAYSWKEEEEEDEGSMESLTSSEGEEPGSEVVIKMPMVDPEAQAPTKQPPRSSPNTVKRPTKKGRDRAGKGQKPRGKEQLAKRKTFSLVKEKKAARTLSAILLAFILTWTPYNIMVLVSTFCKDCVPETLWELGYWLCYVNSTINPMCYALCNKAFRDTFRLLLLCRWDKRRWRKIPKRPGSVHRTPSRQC
Test: FLIPR intracellular calcium assay for M1 positive allosteric modulator activity (acetylcholine EC20)
Assay type: cell-based
Protocol: The assay studies the effect of one or several concentrations of test compounds on basal or acetylcholine-stimulated Ca^2+ levels using FLIPR.
Compounds are prepared and subjected to a preincubation period of 4 min. Thereafter, a single EC20 concentration of acetylcholine is added to each well (3 nM final). The intracellular Ca^2+ level of each sample is measured and compared to an acetylcholine control to determine any modulatory activity.
Cells: CHOnfat/hM1, hM2, hM3 or hM4 cells are plated 24 hr before the assay at a density of 18,000 cells/well (100 μL) in a 384 well plate. CHOnfat/hM1 and CHOnfat/hM3 Growth Medium: 90% DMEM (Hi Glucose); 10% HI FBS; 2 mM L-glutamine; 0.1 mM NEAA; Pen-Strep; and 1 mg/ml Geneticin, are added. For M2Gqi5CHOnfat and M4Gqi5CHOnfat cells, an additional 600 μg/ml hygromycin is added.
Equipment: 384 well plate, 120 μL addition plate; 96-well Whatman 2 ml Uniplate Incubator, 37° C., 5% CO2; Skatron EMBLA-384 Plate Washer; Multimek Pipetting System; Genesis Freedom 200 System; Mosquito System; Temo Nanoliter Pipetting System; and FLIPR^384 Fluorometric Imaging Plate Reader System are used.
Buffers. Assay Buffer: Hanks Balanced Salt Solution, with 20 mM Hepes, 2.5 mM Probenecid (Sigma P-8761) first dissolved in 1 N NaOH, 1% Bovine Serum Albumin (Sigma A-9647). Dye Loading Buffer: Assay Buffer plus 1% Fetal Bovine Serum and Fluo-4AM/Pluronic Acid Mixture. 2 mM Fluo-4AM ester stock in DMSO (Molecular Probes F-14202) Concentration of 2 μM in buffer for a final concentration of 1 μM in Assay. 20% Pluronic Acid Solution stock, with concentration of 0.04% in Buffer, 0.02% in Assay.
65 μL of 2 mM Fluo-4AM are mixed with 130 μL of 20% Pluronic Acid. The resulting solution and 650 μL FBS is added to the assay buffer for a total volume of 65 mL. Positive Controls: 4-Br-A23187: 10 mM in DMSO; final concentration 10 μM. Acetylcholine: 10 mM in water, working stock at both 20 μM and 30 μM in assay buffer, final concentration of 10 μM. This is used to check the maximum stimulation of the CHOK1/hM1 cells. 20 μM (2×) acetylcholine is added in the preincubation part of the assay, and the 30 μM (3×) stock is added in the second part. (EC20) Acetylcholine: 10 mM in water, working stock of 9 nM (3×), and final concentration in assay is 3 nM. This is used after the preincubation with test compounds. Addition of the EC20 Acetylcholine to each well with a test compound will ascertain any modulator activity. 24 wells contain 3 nM Acetylcholine alone as a control.
Screening Plate: Compounds are titrated in 96-well plates (columns 2-11), 100% DMSO, started at a concentration of 15 mM (150× stock concentration), and 3-fold serial dilutions using Genesis Freedom200 System. Four 96-well plates are combined into a 384-well plate using Mosquito Nanoliter Pipetting System by transferring 1 μl of serial diluted compounds to each well, and 1 mM acetylcholine (100× stock concentration) were added as a control. Using Temo, 49 μl assay buffer is added to each well of the 384-well plate right before assay.
In a 96-well Whatman 2 ml Uniplate, 9 nM Acetylcholine (3×) is pipetted into wells corresponding to the screening compounds, and into control wells. The 30 μM acetylcholine control (3×) is added into control wells, and the 3× agonist plate is transferred into a 384 well plate.
Cells are washed three times with 100 μL of buffer, leaving 30 μL of buffer in each well. Using Multimek, 30 μL of Dye Loading Buffer is added into each well and incubated at 37° C., 5% CO2 for up to one hr.
After 60 min, the cells are washed three times with 100 μL of buffer, leaving 30 μL of buffer in each well. The cell plate, screening plate, and agonist addition plates are placed on the platform in the FLIPR and the door closed. A signal test to check background fluorescence and basal fluorescence signal is performed. Laser intensity is adjusted if necessary. […]

[1] = CHOnfat/hM1 cells, 4 min preincubation, then EC20 acetylcholine (3 nM final), FLIPR Ca2+, read-out: IP Value (inflection point)

| SMILES | EC50 [1] | EC50 |
| --- | --- | --- |
| COC(=O)N1CCC(NC(=O)c2cc(CN3CCC(C#N)(c4ccccn4)CC3)c3ccccn3c2=O)CC1 [Example 20, Methyl 4-[({1-[(4-cyano-4-pyridin-2-ylpiperidin-1-yl)methyl]-4-oxo-4H-quinolizin-3-yl}carbonyl)amino]piperidine-1-carboxylate] | 600 nM | – |
| N#Cc1ccnc(C2(C#N)CCN(Cc3cc(C(=O)N[C@H]4CCCC[C@@H]4O)c(=O)n4ccccc34)CC2)c1 [Example 22, 1-{[4-Cyano-4-(4-cyanopyridin-2-yl)piperidin-1-yl]methyl}-N-[(1S,2S)-2-hydroxycyclohexyl]-4-oxo-4H-quinolizine-3-carboxamide] | 280 nM | – |
| N#CC1(c2cc(CF)ccn2)CCN(Cc2cc(C(=O)N[C@H]3CCCC[C@@H]3O)c(=O)n3ccccc23)CC1 [Example 23, 1-({4-Cyano-4-[4-(fluoromethyl)pyridine-2-yl]piperidin-1-yl}methyl)-N-[(1S,2S)-2-hydroxycyclohexyl]-4-oxo-4H-quinolizine-3-carboxamide] | – | 34 nM |
| N#CC1(c2cc(C(F)F)ccn2)CCN(Cc2cc(C(=O)N[C@H]3CCCC[C@@H]3O)c(=O)n3ccccc23)CC1 [Example 24, 1-({4-Cyano-4-[4-(difluoromethyl)pyridin-2-yl]piperidin-1-yl}methyl)-N-[(1S,2S)-2-hydroxycyclohexyl]-4-oxo-4H-quinolizine-3-carboxamide] | – | 25 nM |
| Cc1cccn2c(=O)c(C(=O)NC3CCOCC3)cc(CN3CCC(C#N)(c4ccccn4)CC3)c12 [Example 25, 1-[(4-Cyano-4-pyridin-2-ylpiperidin-1-yl)methyl]-9-methyl-4-oxo-N-(tetrahydro-2H-pyran-4-yl)-4H-quinolizine-3-carboxamide] | 2100 nM | – |
